The results in this text go back to patent US20260022142A1, “MACROCYCLIC IMMUNOMODULATORS” (Bristol-Myers Squibb Company, priority 2022, published 2026).

Bridge positions count the residues as written; N and C are the ends. Square brackets hold non-standard residues; d marks the D form. Peptide text beside a SMILES is read from it. * marks the point of attachment. Bip = N[C@@H](Cc1ccc(-c2ccccc2)cc1)C(=O)O; Phe(3-Me) = Cc1cccc(C[C@H](N)C(=O)O)c1; 2Pal = N[C@@H](Cc1ccccn1)C(=O)O; 3Pal = N[C@@H](Cc1cccnc1)C(=O)O; 4Pal = N[C@@H](Cc1ccncc1)C(=O)O; d2Pal = N[C@H](Cc1ccccn1)C(=O)O; Cha = N[C@@H](CC1CCCCC1)C(=O)O; Phg = N[C@H](C(=O)O)c1ccccc1; Carboxymethyl = O=C(O)C*; Orn = NCCC[C@H](N)C(=O)O; Aun = NCCCCCCCCCCC(=O)O; Dab = NCC[C@H](N)C(=O)O; Dap = NC[C@H](N)C(=O)O

T1 sequence (Q15116 25-288): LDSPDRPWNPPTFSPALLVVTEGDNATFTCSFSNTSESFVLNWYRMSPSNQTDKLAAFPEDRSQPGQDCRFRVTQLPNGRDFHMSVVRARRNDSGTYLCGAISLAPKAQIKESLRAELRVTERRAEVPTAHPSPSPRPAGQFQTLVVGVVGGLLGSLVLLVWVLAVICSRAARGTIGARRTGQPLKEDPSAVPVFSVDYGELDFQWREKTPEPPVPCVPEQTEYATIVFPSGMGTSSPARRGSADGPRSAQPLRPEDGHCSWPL

The assay concerns the target T1, PD-1/PD-L1 interaction (PE-labeled human PD-L1-Ig binding to Jurkat cell line over-expressing human PD-1) (Homo sapiens, UniProt Q15116).
T1 construct: expressed in transfected cells; host or cells: Jurkat
Nature of the assay: Jurkat-PD-1 Cell Binding High-Content Screening Assay (CBA). It counts as cell-based. Conditions: Jurkat cell line over-expressing human PD-1; PE-labeled PD-L1-Ig 20 nM final; read-out: Jurkat hPD1-PDL1 IC50. In a few lines:
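First, compound is added to PD-1-expressing Jurkat cells in serum-containing DMEM and left 2 h at 37° C. Next, PE-conjugated PD-L1-Ig is introduced at 20 nM final concentration for 1 hour. Finally, cells are fixed in 4% paraformaldehyde with Hoechst 33342, washed and imaged.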
Take `Cc1cccc(C[C@@H]2NC(=O)[C@H](CC(=O)O)NC(=O)[C@H](Cc3ccc(OCC(=O)O)cc3)NC(=O)[C@H](CN)NC(=O)CSC[C@@H](C(=O)N[C@@H](CCN)C(=O)NCCCCCCCCCCC(=O)O)NC(=O)[C@@H](CCC(=O)O)NC(=O)[C@H](C(C)C)NC(=O)[C@H](CC3CCCCC3)NC(=O)[C@H](CCN)NC(=O)[C@@H](CC(C)C)NC(=O)[C@H](CCCN)NC(=O)[C@H](Cc3ccc(O)cc3)NC(=O)[C@H](Cc3ccc(-c4ccccc4)cc3)NC(=O)[C@H](C(C)C)NC2=O)c1` [Compound 2756] ({CH2CO}-[Dap]Y(Carboxymethyl)D[Phe(3-Me)]V[Bip]Y[Orn][dL][Dab][Cha]V[dE]C[Dab][Aun]-OH; thioether N-14): the IC50 came out at 40.7 nM.

For the compound `Cc1cccc(C[C@@H]2NC(=O)[C@H](CC(=O)O)NC(=O)[C@H](Cc3ccc(OCC(=O)O)cc3)NC(=O)[C@H](CN)NC(=O)CSC[C@@H](C(=O)N[C@@H](CCN)C(=O)NCCCCCCCCCCC(=O)O)NC(=O)[C@@H](CCC(=O)O)NC(=O)[C@H](C(C)C)NC(=O)[C@H](CC(C)C)NC(=O)[C@H](CCN)NC(=O)[C@@H](CC(C)C)NC(=O)[C@H](CCCN)NC(=O)[C@H](Cc3ccc(O)cc3)NC(=O)[C@H](Cc3ccc(-c4ccccc4)cc3)NC(=O)[C@H](C(C)C)NC2=O)c1` [Compound 2757] ({CH2CO}-[Dap]Y(Carboxymethyl)D[Phe(3-Me)]V[Bip]Y[Orn][dL][Dab]LV[dE]C[Dab][Aun]-OH; thioether N-14), the IC50 is 177 nM.

For `Cc1cccc(C[C@@H]2NC(=O)[C@H](CC(=O)O)NC(=O)[C@H](Cc3ccc(OCC(=O)O)cc3)NC(=O)[C@H](CN)NC(=O)CSC[C@@H](C(=O)N[C@@H](CCN)C(=O)NCCCCCCCCCCC(=O)O)NC(=O)[C@H](Cc3ccc(O)cc3)NC(=O)[C@H](C(C)C)NC(=O)[C@H](CC(C)C)NC(=O)[C@H](CCN)NC(=O)[C@@H](CC(C)C)NC(=O)[C@H](CCCN)NC(=O)[C@H](Cc3ccc(O)cc3)NC(=O)[C@H](Cc3ccc(-c4ccccc4)cc3)NC(=O)[C@H](C(C)C)NC2=O)c1` [Compound 2758] ({CH2CO}-[Dap]Y(Carboxymethyl)D[Phe(3-Me)]V[Bip]Y[Orn][dL][Dab]LVYC[Dab][Aun]-OH; thioether N-14), the IC50 is 99.1 nM.

For the compound `Cc1cccc(C[C@@H]2NC(=O)[C@H](CC(=O)O)NC(=O)[C@H](Cc3ccc(OCC(=O)O)cc3)NC(=O)[C@H](CN)NC(=O)CSC[C@@H](C(=O)N[C@@H](CCN)C(=O)NCCCCCCCCCCC(=O)O)NC(=O)[C@H](Cc3ccc(O)cc3)NC(=O)[C@H](C(C)C)NC(=O)[C@H](CC(C)C)NC(=O)[C@H](CCN)NC(=O)[C@@H](CC(C)C)NC(=O)[C@H](CCCN)NC(=O)[C@H](Cc3ccc(O)cc3)NC(=O)[C@H](Cc3ccc(-c4ccccc4)cc3)NC(=O)[C@H](CC(C)C)NC2=O)c1` [Compound 2759] ({CH2CO}-[Dap]Y(Carboxymethyl)D[Phe(3-Me)]L[Bip]Y[Orn][dL][Dab]LVYC[Dab][Aun]-OH; thioether N-14), the half-inhibitory concentration (IC50) is 71.1 nM.

Take `Cc1cccc(C[C@@H]2NC(=O)[C@H](CC(=O)O)NC(=O)[C@H](Cc3ccc(OCC(=O)O)cc3)NC(=O)[C@H](CN)NC(=O)CSC[C@@H](C(=O)N[C@@H](CCN)C(=O)NCCCCCCCCCCC(=O)O)NC(=O)[C@H](Cc3ccc(OCC(=O)O)cc3)NC(=O)[C@H](C(C)C)NC(=O)[C@H](CC(C)C)NC(=O)[C@H](CCN)NC(=O)[C@@H](CC(C)C)NC(=O)[C@H](CCCN)NC(=O)[C@H](Cc3ccc(O)cc3)NC(=O)[C@H](Cc3ccc(-c4ccccc4)cc3)NC(=O)[C@H](C(C)C)NC2=O)c1` [Compound 2760] ({CH2CO}-[Dap]Y(Carboxymethyl)D[Phe(3-Me)]V[Bip]Y[Orn][dL][Dab]LVY(Carboxymethyl)C[Dab][Aun]-OH; thioether N-14): the IC50 came out at 38.1 nM.

`Cc1cccc(C[C@@H]2NC(=O)[C@H](CC(=O)O)NC(=O)[C@H](Cc3ccc(OCC(=O)O)cc3)NC(=O)[C@H](CN)NC(=O)CSC[C@@H](C(=O)N[C@@H](CCN)C(=O)NCCCCCCCCCCC(=O)O)NC(=O)[C@H](c3ccccc3)NC(=O)[C@H](C(C)C)NC(=O)[C@H](CC(C)C)NC(=O)[C@H](CCN)NC(=O)[C@@H](CC(C)C)NC(=O)[C@H](CCCN)NC(=O)[C@H](Cc3ccc(O)cc3)NC(=O)[C@H](Cc3ccc(-c4ccccc4)cc3)NC(=O)[C@H](C(C)C)NC2=O)c1` [Compound 2761] ({CH2CO}-[Dap]Y(Carboxymethyl)D[Phe(3-Me)]V[Bip]Y[Orn][dL][Dab]LV[Phg]C[Dab][Aun]-OH; thioether N-14): the IC50 stood at 154 nM.

Take `Cc1cccc(C[C@@H]2NC(=O)[C@H](CC(=O)O)NC(=O)[C@H](Cc3ccc(OCC(=O)O)cc3)NC(=O)[C@H](CN)NC(=O)CSC[C@@H](C(=O)N[C@@H](CCN)C(=O)NCCCCCCCCCCC(=O)O)NC(=O)[C@H](c3ccccc3)NC(=O)[C@H](C(C)C)NC(=O)[C@H](CC3CCCCC3)NC(=O)[C@H](CCN)NC(=O)[C@@H](CC(C)C)NC(=O)[C@H](CCCN)NC(=O)[C@H](Cc3ccc(O)cc3)NC(=O)[C@H](Cc3ccc(-c4ccccc4)cc3)NC(=O)[C@H](C(C)C)NC2=O)c1` [Compound 2762] ({CH2CO}-[Dap]Y(Carboxymethyl)D[Phe(3-Me)]V[Bip]Y[Orn][dL][Dab][Cha]V[Phg]C[Dab][Aun]-OH; thioether N-14): the IC50 came to 197 nM.

For `Cc1cccc(C[C@@H]2NC(=O)[C@H](CC(=O)O)NC(=O)[C@H](Cc3ccc(OCC(=O)O)cc3)NC(=O)[C@H](CN)NC(=O)CSC[C@@H](C(=O)N[C@@H](CCN)C(=O)NCCCCCCCCCCC(=O)O)NC(=O)[C@H](Cc3ccccn3)NC(=O)[C@H](C(C)C)NC(=O)[C@H](CC(C)C)NC(=O)[C@H](CCN)NC(=O)[C@@H](CC(C)C)NC(=O)[C@H](CCCN)NC(=O)[C@H](Cc3ccc(O)cc3)NC(=O)[C@H](Cc3ccc(-c4ccccc4)cc3)NC(=O)[C@H](C(C)C)NC2=O)c1` [Compound 2763] ({CH2CO}-[Dap]Y(Carboxymethyl)D[Phe(3-Me)]V[Bip]Y[Orn][dL][Dab]LV[2Pal]C[Dab][Aun]-OH; thioether N-14), the IC50 amounted to 54.9 nM.

Regarding `Cc1cccc(C[C@@H]2NC(=O)[C@H](CC(=O)O)NC(=O)[C@H](Cc3ccc(OCC(=O)O)cc3)NC(=O)[C@H](CN)NC(=O)CSC[C@@H](C(=O)N[C@@H](CCN)C(=O)NCCCCCCCCCCC(=O)O)NC(=O)[C@@H](Cc3ccccn3)NC(=O)[C@H](C(C)C)NC(=O)[C@H](CC3CCCCC3)NC(=O)[C@H](CCN)NC(=O)[C@@H](CC(C)C)NC(=O)[C@H](CCCN)NC(=O)[C@H](Cc3ccc(O)cc3)NC(=O)[C@H](Cc3ccc(-c4ccccc4)cc3)NC(=O)[C@H](C(C)C)NC2=O)c1` [Compound 2764] ({CH2CO}-[Dap]Y(Carboxymethyl)D[Phe(3-Me)]V[Bip]Y[Orn][dL][Dab][Cha]V[d2Pal]C[Dab][Aun]-OH; thioether N-14), the IC50 worked out at 68.9 nM.

`Cc1cccc(C[C@@H]2NC(=O)[C@H](CC(=O)O)NC(=O)[C@H](Cc3ccc(OCC(=O)O)cc3)NC(=O)[C@H](CN)NC(=O)CSC[C@@H](C(=O)N[C@@H](CCN)C(=O)NCCCCCCCCCCC(=O)O)NC(=O)[C@H](Cc3cccnc3)NC(=O)[C@H](C(C)C)NC(=O)[C@H](CC(C)C)NC(=O)[C@H](CCN)NC(=O)[C@@H](CC(C)C)NC(=O)[C@H](CCCN)NC(=O)[C@H](Cc3ccc(O)cc3)NC(=O)[C@H](Cc3ccc(-c4ccccc4)cc3)NC(=O)[C@H](C(C)C)NC2=O)c1` [Compound 2765] ({CH2CO}-[Dap]Y(Carboxymethyl)D[Phe(3-Me)]V[Bip]Y[Orn][dL][Dab]LV[3Pal]C[Dab][Aun]-OH; thioether N-14): the IC50 is 62.4 nM.

Take `Cc1cccc(C[C@@H]2NC(=O)[C@H](CC(=O)O)NC(=O)[C@H](Cc3ccc(OCC(=O)O)cc3)NC(=O)[C@H](CN)NC(=O)CSC[C@@H](C(=O)N[C@@H](CCN)C(=O)NCCCCCCCCCCC(=O)O)NC(=O)[C@H](Cc3cccnc3)NC(=O)[C@H](C(C)C)NC(=O)[C@H](CC3CCCCC3)NC(=O)[C@H](CCN)NC(=O)[C@@H](CC(C)C)NC(=O)[C@H](CCCN)NC(=O)[C@H](Cc3ccc(O)cc3)NC(=O)[C@H](Cc3ccc(-c4ccccc4)cc3)NC(=O)[C@H](C(C)C)NC2=O)c1` [Compound 2766] ({CH2CO}-[Dap]Y(Carboxymethyl)D[Phe(3-Me)]V[Bip]Y[Orn][dL][Dab][Cha]V[3Pal]C[Dab][Aun]-OH; thioether N-14): the IC50 stood at 55.9 nM.

Regarding `Cc1cccc(C[C@@H]2NC(=O)[C@H](CC(=O)O)NC(=O)[C@H](Cc3ccc(OCC(=O)O)cc3)NC(=O)[C@H](CN)NC(=O)CSC[C@@H](C(=O)N[C@@H](CCN)C(=O)NCCCCCCCCCCC(=O)O)NC(=O)[C@H](Cc3ccncc3)NC(=O)[C@H](C(C)C)NC(=O)[C@H](CC(C)C)NC(=O)[C@H](CCN)NC(=O)[C@@H](CC(C)C)NC(=O)[C@H](CCCN)NC(=O)[C@H](Cc3ccc(O)cc3)NC(=O)[C@H](Cc3ccc(-c4ccccc4)cc3)NC(=O)[C@H](C(C)C)NC2=O)c1` [Compound 2767] ({CH2CO}-[Dap]Y(Carboxymethyl)D[Phe(3-Me)]V[Bip]Y[Orn][dL][Dab]LV[4Pal]C[Dab][Aun]-OH; thioether N-14), the IC50 was found to be 42.7 nM.

Turning to `Cc1cccc(C[C@@H]2NC(=O)[C@H](CC(=O)O)NC(=O)[C@H](Cc3ccc(OCC(=O)O)cc3)NC(=O)[C@H](CN)NC(=O)CSC[C@@H](C(=O)N[C@@H](CCN)C(=O)NCCCCCCCCCCC(=O)O)NC(=O)[C@H](Cc3ccncc3)NC(=O)[C@H](C(C)C)NC(=O)[C@H](CC3CCCCC3)NC(=O)[C@H](CCN)NC(=O)[C@@H](CC(C)C)NC(=O)[C@H](CCCN)NC(=O)[C@H](Cc3ccc(O)cc3)NC(=O)[C@H](Cc3ccc(-c4ccccc4)cc3)NC(=O)[C@H](C(C)C)NC2=O)c1` [Compound 2768] ({CH2CO}-[Dap]Y(Carboxymethyl)D[Phe(3-Me)]V[Bip]Y[Orn][dL][Dab][Cha]V[4Pal]C[Dab][Aun]-OH; thioether N-14), the IC50 came out at 55.2 nM.

The IC50 is the concentration that inhibits the measured activity by half.
